From ChEMBL document CHEMBL1125860 (J Med Chem, 1991)
Active and inactive are the calls of the source. The calls are words filed in the database; no cut-off is given here.

Experiments:
[1] = tested on: Rattus norvegicus; assay: In vivo inhibition of galactitol accumulation in sciatic nerves of galactose fed rat.; type: functional; details: Sciatic nerve
[2] = tested on: Rattus norvegicus; assay: In vivo inhibition of galactitol accumulation in the RBC of galactose fed rat.; type: functional
[3] = species: Rattus norvegicus; assay: In vitro inhibition of sorbitol accumulation was measured in rat sciatic nerves incubated in the presence of 50 mM glucose at 10e-6 M concentration; type: functional, Sciatic nerve
[4] = tested on: Rattus norvegicus; assay: In vivo inhibition of galactitol accumulation in sciatic nerves of rat at 5 mg/kg/day; type: functional; details: Sciatic nerve
[5] = species: Rattus norvegicus; assay: Inhibition of galactitol accumulation in rat RBC incubated in presence of 50 mM glucose; type: functional, organism-based
[6] = species: Rattus norvegicus; assay: Inhibition of galactitol accumulation in rat lens incubated in presence of 50 mM glucose; type: functional, organism-based; details: Lens of camera-type eye
[7] = tested on: Rattus norvegicus; assay: In vivo inhibition of galactitol accumulation in diaphragm of rat at 10 mg/kg/day; type: functional
[8] = species: Rattus norvegicus; assay: Inhibition of galactitol accumulation in sciatic nerves of rat incubated in presence of 50 mM glucose.; type: functional, organism-based; details: Sciatic nerve
[9] = tested on: Rattus norvegicus; assay: In vivo inhibition of galactitol accumulation in sciatic nerves of rat at 10 mg/kg/day; type: functional; details: Sciatic nerve
[10] = species: Rattus norvegicus; assay: Inhibition of aldose reductase activity was measured by measuring sorbitor accumulation in the sciatic nerves of STZ diabetic rat.; type: functional; details: Sciatic nerve
[11] = tested on: Rattus norvegicus; assay: In vivo inhibition of galactitol accumulation in diaphragm of rat at 5 mg/kg/day; type: functional
[12] = species: Rattus norvegicus; assay: In vitro inhibition of sorbitol accumulation was measured in rat sciatic nerves incubated in the presence of 50 mM glucose at 10e-5 M concentration; type: functional, Sciatic nerve
[13] = target: Aldo-keto reductase family 1 member B1 (Bos taurus) (UniProt P16116); assay: Inhibition of aldose reductase activity was measured on partially purified bovine lens preparations incubated in presence of 50 mM glucose; Not active
[14] = target: Aldo-keto reductase family 1 member B1 (Bos taurus) (UniProt P16116); assay: In vitro % decrease of aldose reductase measured in isolated partially purified bovine lens preparations at 10e-7 M concentration
[15] = tested on: Rattus norvegicus; assay: In vivo inhibition of galactitol accumulation in diaphragm of rat at 123 mg/kg/day; type: functional
[16] = tested on: Rattus norvegicus; assay: In vivo inhibition of galactitol accumulation in diaphragm of rat at 11 mg/kg/day; type: functional
[17] = tested on: Rattus norvegicus; assay: In vivo inhibition of galactitol accumulation in sciatic nerves of rat at 123 mg/kg/day; type: functional; details: Sciatic nerve
[18] = tested on: Rattus norvegicus; assay: In vivo inhibition of galactitol accumulation in sciatic nerves of rat at 11 mg/kg/day; Not significant; type: functional, organism-based; details: Sciatic nerve
[19] = tested on: Rattus norvegicus; assay: In vivo inhibition of galactitol accumulation in diaphragm of rat at 144 mg/kg; type: functional
[20] = tested on: Rattus norvegicus; assay: In vivo inhibition of galactitol accumulation in sciatic nerves of rat at 44 mg/kg/day; Not significant; type: functional, organism-based; details: Sciatic nerve
[21] = tested on: Rattus norvegicus; assay: % reduction of aldose reductase inhibition was evaluated by measuring galactitol accumulation in sciatic nerves of rat at 32 mg/kg/day; type: functional; details: Sciatic nerve
[22] = tested on: Rattus norvegicus; assay: In vivo inhibition of galactitol accumulation in sciatic nerves of rat at 11 mg/kg/day; type: functional; details: Sciatic nerve
[23] = tested on: Rattus norvegicus; assay: In vivo inhibition of galactitol accumulation in sciatic nerves of rat at 32 mg/kg/day; type: functional; details: Sciatic nerve
[24] = target: Aldo-keto reductase family 1 member B1 (Bos taurus) (UniProt P16116); assay: In vitro % decrease of aldose reductase was measured in isolated partially purified bovine lens preparations at 10e-7 M concentration; Not active
[25] = tested on: Rattus norvegicus; assay: In vivo inhibition of galactitol accumulation in diaphragm of rat at 132 mg/kg/day; type: functional
[26] = tested on: Rattus norvegicus; assay: In vivo inhibition of galactitol accumulation in sciatic nerves of rat at 132 mg/kg/day; type: functional; details: Sciatic nerve
[27] = tested on: Rattus norvegicus; assay: In vivo inhibition of galactitol accumulation in sciatic nerves of rat at 53 mg/kg/day; type: functional; details: Sciatic nerve
[28] = tested on: Rattus norvegicus; assay: In vivo inhibition of galactitol accumulation in sciatic nerves of rat at 25 mg/kg/day; type: functional; details: Sciatic nerve
[29] = tested on: Rattus norvegicus; assay: In vivo inhibition of galactitol accumulation in diaphragm of rat at 75 mg/kg/day; type: functional
[30] = tested on: Rattus norvegicus; assay: In vivo inhibition of galactitol accumulation in diaphragm of rat at 25 mg/kg/day; […]; type: functional, organism-based
[31] = tested on: Rattus norvegicus; assay: In vivo inhibition of galactitol accumulation in diaphragm of rat at 53 mg/kg/day; type: functional
[32] = tested on: Rattus norvegicus; assay: In vivo inhibition of galactitol accumulation in sciatic nerves of rat at 75 mg/kg/day; type: functional; details: Sciatic nerve
[33] = tested on: Rattus norvegicus; assay: In vivo inhibition of galactitol accumulation in sciatic nerves of rat at 16 mg/kg/day; Not significant; type: functional, organism-based; details: Sciatic nerve
[34] = tested on: Rattus norvegicus; assay: In vivo inhibition of galactitol accumulation in diaphragm of rat at 16 mg/kg/day; type: functional
[35] = tested on: Rattus norvegicus; assay: In vivo inhibition of galactitol accumulation in sciatic nerves of rat at 49 mg/kg/day; type: functional; details: Sciatic nerve
[36] = tested on: Rattus norvegicus; assay: In vivo inhibition of galactitol accumulation in sciatic nerves of rat at 26 mg/kg/day; type: functional; details: Sciatic nerve
[37] = tested on: Rattus norvegicus; assay: In vivo inhibition of galactitol accumulation in diaphragm of rat at 49 mg/kg; type: functional
[38] = tested on: Rattus norvegicus; assay: In vivo inhibition of galactitol accumulation in sciatic nerves of rat at 52 mg/kg/dayC; type: functional, organism-based; details: Sciatic nerve
[39] = tested on: Rattus norvegicus; assay: In vivo inhibition of galactitol accumulation in diaphragm of rat at 52 mg/kg/day; type: functional
[40] = tested on: Rattus norvegicus; assay: In vivo inhibition of galactitol accumulation in diaphragm of rat at 97 mg/kg/day; type: functional
[41] = tested on: Rattus norvegicus; assay: In vivo inhibition of galactitol accumulation in sciatic nerves of rat at 97 mg/kg/day; type: functional; details: Sciatic nerve
[42] = tested on: Rattus norvegicus; assay: In vivo inhibition of galactitol accumulation in diaphragm of rat at 51 mg/kg/day; type: functional
[43] = tested on: Rattus norvegicus; assay: In vivo inhibition of galactitol accumulation in sciatic nerves of rat at 51 mg/kg/day; type: functional; details: Sciatic nerve

SMILES: COc1ccc2c(C(=O)N(C)CC(N)=O)c(F)ccc2c1C(F)(F)F
- ED50 [1]: 5.5 mg/kg
- ED50 [2]: 8.5 mg/kg
- Inhibition [3]: 17%
- inhibition in vivo at 5 mg/kg/day [4]: 39%
- IC50 [5]: 12 µM
- IC50 [6]: > 10 µM
- inhibition in vivo at 10 mg/kg/day [7]: 41%
- IC50 [8]: 3.1 µM
- inhibition in vivo at 10 mg/kg/day [9]: 59%
- ED50 [10]: < 3 mg/kg
- inhibition in vivo at 5 mg/kg/day [11]: 32%
- Inhibition [12]: 80%
- inhibition [13]: inactive

SMILES: COc1ccc2c(C(=S)N(C)CC(=O)O)cc(C)cc2c1Br
- inhibition [14]: 85%
- Inhibition [3]: 43%
- inhibition in vivo at 123 mg/kg/day [15]: 91%
- inhibition in vivo at 11 mg/kg/day [16]: 48%
- Inhibition [12]: 86%
- inhibition in vivo at 123 mg/kg/day [17]: 86%
- inhibition [18]: inactive

SMILES: COc1ccc2c(C(=O)N(C)CC(=O)O)cc(Cc3ccccc3)cc2c1Br
- inhibition [14]: 74%
- Inhibition [3]: 44%
- inhibition in vivo at 144 mg/kg [19]: 24%
- inhibition [20]: inactive
- Inhibition [12]: 72%

SMILES: CCN(CC)C(=O)COC(=O)CN(C(=O)OC)C(=O)c1c(F)ccc2c(C(F)(F)F)c(OC)ccc12
- inhibition in vivo at 32 mg/kg/day [21]: 75%
- inhibition in vivo at 11 mg/kg/day [22]: 39%
- inhibition in vivo at 11 mg/kg/day [16]: 36%
- inhibition in vivo at 32 mg/kg/day [23]: 75%
- inhibition [24]: inactive

SMILES: COc1ccc2c(C(=O)N(C)CC(=O)O)cc(-c3ccccc3)cc2c1Br
- inhibition [14]: 83%
- inhibition in vivo at 132 mg/kg/day [25]: 33%
- Inhibition [3]: 28%
- inhibition in vivo at 132 mg/kg/day [26]: 24%
- Inhibition [12]: 71%

SMILES: COc1ccc2c(C(=O)N(C)CC(=O)O)cccc2c1C(F)(F)F
- inhibition in vivo at 53 mg/kg/day [27]: 93%
- inhibition in vivo at 25 mg/kg/day [28]: 33%
- inhibition in vivo at 75 mg/kg/day [29]: 27%
- Inhibition [3]: 27%
- inhibition [30]: inactive
- inhibition in vivo at 53 mg/kg/day [31]: 94%
- inhibition in vivo at 75 mg/kg/day [32]: 56%
- Inhibition [12]: 74%

SMILES: COC(=O)N(CC(N)=O)C(=O)c1c(F)ccc2c(C(F)(F)F)c(OC)ccc12
- Inhibition [3]: 4%
- inhibition in vivo at 11 mg/kg/day [16]: 28%
- Inhibition [12]: 34%
- inhibition [24]: inactive
- inhibition [33]: inactive
- inhibition in vivo at 16 mg/kg/day [34]: 33%
- inhibition [18]: inactive

SMILES: COc1ccc2c(C(=O)N(C)CC(=O)O)c(Cl)ccc2c1C(F)(F)F
- inhibition in vivo at 49 mg/kg/day [35]: 83%
- inhibition [14]: 63%
- inhibition in vivo at 26 mg/kg/day [36]: 43%
- Inhibition [3]: 39%
- Inhibition [12]: 67%
- inhibition in vivo at 49 mg/kg [37]: 80%

SMILES: COc1ccc2c(C(=O)N(C)CC(=O)O)ccc(Cc3ccccc3)c2c1Br
- inhibition [14]: 80%
- inhibition [38]: inactive
- inhibition in vivo at 52 mg/kg/day [39]: 34%

SMILES: COc1ccc2c(C(=O)N(C)CC(=O)O)c(Br)ccc2c1C(F)(F)F
- inhibition in vivo at 97 mg/kg/day [40]: 84%
- inhibition [14]: 63%
- Inhibition [3]: 37%
- inhibition in vivo at 97 mg/kg/day [41]: 44%
- Inhibition [12]: 67%

SMILES: COC(=O)N(CC(=O)O)C(=O)c1c(Br)ccc2c(C(F)(F)F)c(OC)ccc12
- inhibition in vivo at 51 mg/kg/day [42]: 62%
- inhibition [14]: 77%
- inhibition in vivo at 51 mg/kg/day [43]: 69%
- Inhibition [3]: 29%
- Inhibition [12]: 68%
